Values of other authors, collected in patent US20070036851A1, “Acid labile drug compositions” (priority 2002, published 2007).

Conditions: in vitro, water, pH of about 6; colour changes from clear to yellow, then brown, then purple

COc1ccc2[nH]c([S+]([O-])Cc3ncc(C)c(OC)c3C)nc2c1 (stereo not shown) [omeprazole]
stability at acidic pH (drug degradation): quickly cyclizes
